These results are taken from PubChem BioAssay (NCI).

Test systems include SK-OV-3 ovarian; RXF 393 renal; MDA-MB-435; SK-MEL-2 melanoma; BT-549 breast; HS 578T breast; TK-10 renal; UACC-257 melanoma; CAKI-1 renal.
What all share (experiment): NCI tumour cell line growth inhibition, 48 h

Each structure is given as a SMILES string.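 These data come from cells grown in 96-well plates and exposed to compound for 48 hours at five concentrations. The concentration for 50% growth inhibition is given as GI50. TGI marks complete inhibition of growth.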

With `O=[N+]([O-])/C=C/c1c(Cl)cccc1Cl`, the TGI in the assay on SK-OV-3 ovarian is 35.5 µM; with RXF 393 renal, greater than 21.8 µM; with MDA-MB-435, 4.62 µM; in the assay on SK-MEL-2 melanoma, 14 µM; in the assay with BT-549 breast it was 4.96 µM; with HS 578T breast, greater than 62.9 µM. For the same compound, the values for the TGI in the assay with TK-10 renal, with UACC-257 melanoma and in the assay with CAKI-1 renal were 8.25 µM, 10.2 µM and 7.86 µM, respectively.
Regarding `Cc1cc2c(c(C(N)=O)c1C)-c1cccc(F)c1C2=O`, the TGI in the assay with SK-OV-3 ovarian, in the assay on SK-MEL-2 melanoma, with TK-10 renal and with UACC-257 melanoma was greater than 100 µM in each case.
Turning to `COc1ccc2c(c1)/C(=C\c1ccncc1)C(=O)N2`, the GI50 with SK-OV-3 ovarian was 19.5 µM; in the assay on MDA-MB-435 it was 6.57 µM; in the assay with SK-MEL-2 melanoma, 6.12 µM; in the assay on BT-549 breast it was 12.5 µM; with HS 578T breast it was 27.4 µM; with TK-10 renal, 15.1 µM. Further, the figures for the GI50 with UACC-257 melanoma and in the assay on CAKI-1 renal were 4.62 µM and 3.64 µM, respectively. Also, the TGI stood at 79.9 µM in the assay with SK-OV-3 ovarian; 39.3 µM in the assay on MDA-MB-435; 23.6 µM in the assay with SK-MEL-2 melanoma; 32.4 µM with BT-549 breast; 82.1 µM with HS 578T breast; 30.5 µM in the assay with TK-10 renal. In addition, the TGI is 18.3 µM in the assay on UACC-257 melanoma and 15.9 µM in the assay on CAKI-1 renal.
`CCO/C=C1\N=C(c2ccc(Cl)c(Cl)c2)OC1=O`: the TGI in the assay with RXF 393 renal, with SK-MEL-2 melanoma, in the assay on TK-10 renal, in the assay on UACC-257 melanoma and in the assay with CAKI-1 renal was greater than 100 µM each time.
Regarding `O=C1C2C(C(=O)N1c1ccccc1)C1c3ccccc3C2C2C(=O)N(c3ccccc3)C(=O)C21` (centres undefined), the TGI in the assay with SK-OV-3 ovarian is greater than 100 µM; with RXF 393 renal, greater than 100 µM; with SK-MEL-2 melanoma it was 6.52 µM; in the assay with TK-10 renal it was greater than 100 µM; in the assay with UACC-257 melanoma, greater than 100 µM; in the assay on CAKI-1 renal, greater than 100 µM.
In the case of `COc1ccccc1N=Nc1c(-c2ccccc2)nn(C(=O)CC(=O)Nc2cccc(C)c2)c1-c1ccccc1`, the TGI in the assay on RXF 393 renal, in the assay with TK-10 renal, in the assay on UACC-257 melanoma and in the assay on CAKI-1 renal was greater than 100 µM throughout.
Consider `N#Cc1nc(-c2ccc(F)cc2)oc1S(=O)(=O)N1CCCCC1`, for which the GI50 in the assay with SK-OV-3 ovarian is 24.3 µM; with RXF 393 renal, 1.91 µM; in the assay on MDA-MB-435, 1.82 µM; with SK-MEL-2 melanoma, 2.03 µM; with BT-549 breast it was 2.24 µM; in the assay on HS 578T breast, 2.24 µM. In addition, the GI50 with TK-10 renal is 1.78 µM; in the assay on UACC-257 melanoma, 1.98 µM; in the assay with CAKI-1 renal it was 1.66 µM. The TGI amounted to 91.2 µM in the assay with SK-OV-3 ovarian; 3.38 µM with RXF 393 renal; 3.75 µM in the assay with MDA-MB-435; 4.92 µM in the assay with SK-MEL-2 melanoma; 5.74 µM in the assay with BT-549 breast; 5.74 µM in the assay with HS 578T breast. Further, the TGI in the assay with TK-10 renal is 3.27 µM; in the assay on UACC-257 melanoma, 4.58 µM; in the assay on CAKI-1 renal, 3.03 µM.
On to `COC(=O)CCC(NC(=S)N/N=C(\C)c1ccc[nH]1)C(=O)OC` (centres undefined), for which the TGI in the assay with SK-OV-3 ovarian, with RXF 393 renal, in the assay with SK-MEL-2 melanoma, with TK-10 renal and with UACC-257 melanoma was greater than 100 µM each time.
Take `OCCCCC#Cc1ccccc1C#Cc1ccc(O)cc1`: the GI50 with SK-OV-3 ovarian was 20 µM; in the assay on RXF 393 renal it was 0.622 µM; in the assay with MDA-MB-435 it was 16.1 µM; with SK-MEL-2 melanoma it was 20.8 µM; in the assay with BT-549 breast, 14.1 µM; in the assay with HS 578T breast, 26.2 µM. Besides, the values for the GI50 with TK-10 renal, with UACC-257 melanoma and in the assay with CAKI-1 renal were 17.5 µM, 18.5 µM and 15.7 µM, respectively. For the same compound, the TGI in the assay with SK-OV-3 ovarian was determined as 40.2 µM; with RXF 393 renal, 22.4 µM; in the assay with MDA-MB-435, 31 µM; in the assay on SK-MEL-2 melanoma it was 43 µM; with BT-549 breast it was 28.8 µM; in the assay on HS 578T breast it was 77.1 µM. The TGI was found to be 31.7 µM with TK-10 renal, 33.9 µM with UACC-257 melanoma and 30.3 µM in the assay with CAKI-1 renal.
As to `CNC(=O)NCC1OC(n2cnc3c(NC(=O)Nc4ccccc4)ncnc32)C(O[Si](C)(C)C(C)(C)C)C1O[Si](C)(C)C(C)(C)C` (centres undefined), the GI50 with SK-OV-3 ovarian was 6.88 µM; with RXF 393 renal it was 2.14 µM; in the assay on MDA-MB-435, 3.41 µM; in the assay on SK-MEL-2 melanoma it was 2.45 µM; in the assay with BT-549 breast, 2.94 µM; in the assay with TK-10 renal, 4.29 µM. The values for the GI50 in the assay on UACC-257 melanoma and in the assay with CAKI-1 renal were 3.78 µM and 2.7 µM, respectively. Also, the TGI was greater than 100 µM with SK-OV-3 ovarian; 4.01 µM in the assay on RXF 393 renal; 29.1 µM in the assay on MDA-MB-435; 5.54 µM with SK-MEL-2 melanoma; 8.18 µM in the assay on BT-549 breast; 72.6 µM with TK-10 renal. Besides, the TGI came out at 20.2 µM in the assay with UACC-257 melanoma and 7.93 µM in the assay with CAKI-1 renal.
As for `CCC(=O)N1C/C(=C/c2ccc(Cl)cc2)C(=O)/C(=C/c2ccc(Cl)cc2)C1`, the GI50 was 1.83 µM in the assay with SK-OV-3 ovarian; 0.723 µM with RXF 393 renal; 0.403 µM in the assay on MDA-MB-435; 2.01 µM in the assay on SK-MEL-2 melanoma; 0.462 µM with BT-549 breast; 2.06 µM with HS 578T breast. Further, the GI50 in the assay on TK-10 renal was 1.76 µM; in the assay with UACC-257 melanoma it was 1.64 µM; in the assay on CAKI-1 renal it was 2.25 µM. The TGI in the assay with SK-OV-3 ovarian was determined as 3.76 µM; in the assay with RXF 393 renal, 2.08 µM; in the assay on MDA-MB-435, 1.64 µM; in the assay with SK-MEL-2 melanoma, 3.94 µM; in the assay on BT-549 breast it was 1.52 µM; in the assay with HS 578T breast it was 6.05 µM. The figures for the TGI in the assay with TK-10 renal, in the assay with UACC-257 melanoma and with CAKI-1 renal were 3.52 µM, 3.24 µM and 7.85 µM, respectively.
Take `N#C/C(=C1\SCC(=O)N1c1ccccc1)c1nc2ccccc2[nH]1`: the TGI in the assay on SK-OV-3 ovarian, in the assay with RXF 393 renal, with SK-MEL-2 melanoma, in the assay on TK-10 renal, in the assay with UACC-257 melanoma and in the assay on CAKI-1 renal was greater than 100 µM throughout.
As to `CO/N=C(\COc1ccc2c(=O)c3ccccc3oc2c1)c1ccccc1`, the GI50 is 29.7 µM in the assay with SK-OV-3 ovarian; 39 µM with RXF 393 renal; 86.7 µM in the assay with MDA-MB-435; 26.8 µM in the assay with BT-549 breast; 30.6 µM in the assay with HS 578T breast; 18.6 µM in the assay on TK-10 renal. The GI50 was 39.1 µM in the assay on UACC-257 melanoma and 1.19 µM in the assay on CAKI-1 renal. For the same compound, the TGI in the assay on SK-OV-3 ovarian is 77 µM; with RXF 393 renal, greater than 100 µM; in the assay with MDA-MB-435, greater than 100 µM; in the assay on BT-549 breast, 74.5 µM; in the assay on HS 578T breast, 89.8 µM; in the assay on TK-10 renal, 38.1 µM. Further, the TGI with UACC-257 melanoma is greater than 100 µM; in the assay on CAKI-1 renal, 4.89 µM.
`Cc1ccc(S(=O)(=O)N/N=C(\c2nc3ccc(Cl)cc3[nH]c2=O)C(O)c2ccco2)cc1` (centres undefined): the TGI in the assay with RXF 393 renal, in the assay with SK-MEL-2 melanoma, in the assay with TK-10 renal, with UACC-257 melanoma and in the assay with CAKI-1 renal was greater than 100 µM each time.
Turning to `COc1cc(CNc2nc3c(N)cc(C(F)(F)F)cc3nc2-c2ccccc2)cc(OC)c1OC`, the GI50 in the assay with SK-OV-3 ovarian and in the assay on TK-10 renal was greater than 100 µM each time. In addition, the TGI in the assay on SK-OV-3 ovarian was greater than 100 µM; in the assay with RXF 393 renal, 69.4 µM; in the assay on SK-MEL-2 melanoma, greater than 100 µM; in the assay on TK-10 renal, greater than 100 µM; in the assay with UACC-257 melanoma, greater than 100 µM.
Consider `C/C(CC(=O)NCCc1ccccc1)=N\NS(=O)(=O)c1ccc(C)cc1`, for which the TGI in the assay on SK-OV-3 ovarian, in the assay with RXF 393 renal, in the assay on SK-MEL-2 melanoma, in the assay on TK-10 renal and in the assay with UACC-257 melanoma was greater than 100 µM each time.
As for `C/C(CC(=O)Nc1cccc(Cl)c1C)=N\NC(N)=S`, the TGI with SK-OV-3 ovarian, in the assay with RXF 393 renal, with SK-MEL-2 melanoma, with TK-10 renal and in the assay on UACC-257 melanoma was greater than 100 µM each time.
As to `ClC(Cl)=C(Cl)C1(Cl)CC1COCc1ccccc1` (centres undefined), the TGI with SK-OV-3 ovarian was greater than 100 µM; in the assay on RXF 393 renal, 59.6 µM; in the assay with SK-MEL-2 melanoma, 36.7 µM; with TK-10 renal, greater than 100 µM; with UACC-257 melanoma, 97.2 µM; in the assay with CAKI-1 renal, greater than 100 µM.
Consider `COc1cc2c(cc1OC)C(C(=O)O)C(c1ccccc1)N(C)C2=O` (centres undefined), for which the TGI in the assay on SK-OV-3 ovarian, in the assay with SK-MEL-2 melanoma, in the assay on TK-10 renal, in the assay with UACC-257 melanoma and in the assay on CAKI-1 renal was greater than 100 µM each time.
As to `Cc1cc(N(CCC#N)S(=O)(=O)c2ccccc2)ccc1/C=C1\N=C(c2ccc(Cl)cc2)OC1=O`, the TGI in the assay with RXF 393 renal, in the assay with SK-MEL-2 melanoma, in the assay with UACC-257 melanoma and in the assay with CAKI-1 renal was greater than 100 µM each time.
As for `COC1C(OC(=O)c2ccc(C)[nH]2)C(O)C(Oc2ccc3c(O)c(NC(=O)c4c[nH]c(C(=O)Nc5c(O)c6ccc(OC7OC(C)(C)C(OC)C(OC(=O)c8ccc(C)[nH]8)C7O)c(C)c6oc5=O)c4C)c(=O)oc3c2C)OC1(C)C` (centres undefined), the TGI is 4.58 µM in the assay with SK-OV-3 ovarian; 2.23 µM in the assay on RXF 393 renal; 4.42 µM in the assay with SK-MEL-2 melanoma; 37.3 µM in the assay with TK-10 renal; 33.5 µM in the assay with UACC-257 melanoma; 6.08 µM with CAKI-1 renal.
